Here are results for 2 compounds from patent US20210356447A1, “EFFICACY EVALUATION METHOD OF DRUG FOR REVERSING TUMOR MULTIDRUG RESISTANCE” (JINAN UNIVERSITY, priority 2018, published 2021).

In this test the test system is Liver cancer HepG2/ADR tumor-transplanted nude mouse model. Description: Callback rate of serum and urine metabolic markers (targeted metabonomics, LC-MS/MS) in drug-resistant liver cancer nude mouse model. It is filed as in vivo, nude mice (nu/nu-BALB/c).
Setting [1] is: serum metabolic marker, 3 mg/kg, 0.2 ml tail vein injection once every three days, seven times, HepG2/ADR nude mice.
The mark [2] stands for this setting: urine metabolic marker, 3 mg/kg, 0.2 ml tail vein injection once every three days, seven times, HepG2/ADR nude mice.

Structures are written as SMILES.

Protocol: Liver cancer HepG2/ADR tumor-transplanted nude mouse models were firstly established and divided into four groups with 30 mice in each group, and after one week of successful establishment of the model, the mice were administered in different methods:
Metabolic markers were quantified by a targeted metabonomics technology, and an efficacy of a drug for reversing tumor multidrug resistance to be evaluated was evaluated by a concentration of each metabolic marker.
Cell transplanting: ten nude mice without thymus, including five male mice and five female mice, were selected, after 10-day adaptation period, 0.2 ml of HepG2/ADR cells (cell concentration: 6×10^7 cells/ml) were subcutaneously injected into each nude mouse with a 23G sterile needle, and in order to prevent tumor cells from being destroyed and matrix gel from being solidified in the period, the injection should be completed as soon as possible. Before injection, the needle was shaken left and right to form an expanded subcutaneous cyst (because if the injection was performed to a specific area by not shaking the needle, the mixture could form a large cell mass, and ineffective perfusion of nutrients in a core of the mass into the cells could result in subsequent growth defects), and when the needle was taken out, the injector was rotated to prevent leakage of cell sap. After subcutaneous injection, the matrix gel was irreversibly solidified to form a red bulge, about 10 days later, the solidified matrix gel was eliminated, and the tumor cells were successfully inoculated, and after a tumor mass grew for three weeks, nude mice with the tumor of the same size (about 7 mm in diameter) were selected. The subcutaneous tumor mass was taken out, a peripheral part of the tumor mass was divided into small tumor masses of 2×2×2 mm, after the nude mice (nu/nu-BALB/c, half male nude mice and half female nude mice at six weeks old, n=30) were anesthetized with isoflurane, the small tumor masses were subcutaneously implanted into shoulders of the nude mice to make the tumor masses of liver cancer model mice similar in size and shape, thus reducing experimental errors caused by different tumor mass sizes. After successful transplantation, growth statuses of the model nude mice were observed and recorded every day, weights of the nude mice were recorded every two days, and tumor sizes (length and width) were measured with a vernier caliper.
Healthy group: only normal saline was administrated to 30 healthy nude mice without being inoculated with any tumor cells once every three days for a total of seven times, with a dose of 0.2 ml each time by an administration method of tail vein injection.
Negative control group: only normal saline was administrated to 30 liver cancer HepG2/ADR tumor-transplanted nude mouse models once every three days for a total of seven times, with a dose of 0.2 ml each time by an administration method of tail vein injection.
Mass spectra of standard substances of a-linolenic acid, 3-methylglutaric acid, 17-hydroxystearic acid, xanthurenic acid, indole-2-carboxylic acid and 3-furoic acid were measured to determine mass-spectrometric detection conditions of each metabolic marker.
A series of linear concentration samples of the standard substance of each metabolic marker were respectively measured using the detection conditions above to obtain a relationship between a peak area of a characteristic fragment particle peak and a concentration of each metabolic marker, and linear regression was performed to obtain a linear regression equation.

`COc1cccc2c1C(=O)c1c(O)c3c(c(O)c1C2=O)C[C@@](O)(C(=O)CO)C[C@@H]3O[C@H]1C[C@H](N)[C@H](O)[C@H](C)O1` [Positive control group, doxorubicin]: under setting [1], the “Callback rate, 3-methylglutaric acid” value came to 13.69% and the “Callback rate, A-linolenic acid” value came to 17.56%. For the same compound, under setting [2], the “Callback rate, 3-furoic acid” value was determined as 12.30%; the “Callback rate, Xanthurenic acid” value was determined as 19.08%; the “Callback rate, indole-2-carboxylic acid” value is reported as 12.73%.

Turning to `O=c1ccc2cc3ccoc3cc2o1` [psoralen], the “effect of reversing tumor drug resistance, judged from the callback rates” value (result in words, comparison of groups in HepG2/ADR nude mice) is reported as “really has the effect of reversing tumor drug resistance”.
